Assay results from patent publication US6630343B1, “Hepatitis C virus culture system” (priority 1999, dated 2003).
Starred links: 1 amine or outer side, 2 acyl side, 3 side chain; linkers in the order of their positions; H or OH if unused. Positions of bridges follow the written chain, without caps; N, C: chain ends. Non-standard residues stand in square brackets, D forms with d. Residues, ends and D or L forms follow the SMILES beside them. Chains are numbered I, II in the order given. Actinocin(9to1) = Cc1c2oc3c(C)ccc(C(=O)[*:1])c3nc-2c(C(=O)[*:2])c(N)c1=O; NMeV = CN[C@H](C(=O)O)C(C)C; Sar = CNCC(=O)O

Columns and labels:
HCV RNA = experiment: [3H] uridine labeling of RNA in the presence of dactinomycin: HCV-RNA replication; format: cell-based, hepatitis C virus; settings: 4 μg/ml dactinomycin, 16 hrs, clone 9-13
Description: (§1) To confirm this assumption, cells were incubated with [^3H] uridine in the presence of dactinomycin, the radioactively labeled RNAs were extracted, separated by means of denaturing agarose gel electrophoresis and analyzed with the aid of a common Bio-Imager using a [^3H]-sensitive screen. For this purpose approx. 5×10^5 cells of the clones 9-13 and 8-1 were incubated at a time with 100 μCi [^3H] uridine for 16 hrs. in the absence (−) or presence (+) of 4 μg/ml of dactinomycin (Dact). Following this labeling reaction the total RNA was prepared and analyzed by means of formaldehyde-agarose gel electrophoresis. Only 1/10 of the total RNA is illustrated in the first two lanes. The radioactively labeled RNA was visualized using a BAS-2500 Bio-Imager (Fuji).

[1] = tested on: Huh 7 cell clones 9-13 and 8-1; experiment: [3H] uridine labeling of RNA in the presence of dactinomycin: cellular RNA synthesis; format: cell-based, human; settings: 4 μg/ml dactinomycin, 16 hrs
Description: as §1

`Cc1c2oc3c(C)ccc(C(=O)N[C@@H]4C(=O)N[C@H](C(C)C)C(=O)N5CCC[C@H]5C(=O)N(C)CC(=O)N(C)[C@@H](C(C)C)C(=O)O[C@@H]4C)c3nc-2c(C(=O)N[C@@H]2C(=O)N[C@H](C(C)C)C(=O)N3CCC[C@H]3C(=O)N(C)CC(=O)N(C)[C@@H](C(C)C)C(=O)O[C@@H]2C)c(N)c1=O` [dactinomycin] (I: T[dV]P[Sar][NMeV] / II: T[dV]P[Sar][NMeV]; ester I:1-I:C, II:1-II:C; linker I:N-II:N via Actinocin(9to1)) was tested, and the “influence on the replication of the HCV RNA” value (HCV RNA) was “no influence” and the “synthesis of cellular RNA” value [1] was “inhibited”.
